The record followed here is EP4617268A1, “QUINAZOLINE DERIVATIVES” (Kyoto University, priority 2022, dated 2024).

Molecules are shown by their SMILES. A value given as a limit tells only on which side of the number the result lay.

The test system of this experiment is IKBKAP-FD exon 20 inclusion (IKBKAP gene, IVS20+6T>C mutation). Description: SPREADD reporter system for the IKBKAP splicing mutation (exon 20 skipping, IVS20+6T>C) in transfected HeLa cells, GFP/RFP ratio. As to conditions: Homo sapiens, 24 h; HeLa cells transfected with SPREADD reporter construct; fluorescence measured one day later; IKBKAP-FD exon 20 inclusion rate by GFP/RFP ratio; %GFP of 20 pM 2-chloro-6-(2-furylmethyl)purine set to 100%. The experiment is classed as cell-based. The protocol:
A SPREADD reporter system for a splicing mutation of the IKBKAP gene in familial dysautonomia was prepared, as illustrated in FIG. 1. In this reporter system, GFP is expressed when the gene undergoes normal splicing, while RFP is expressed when the gene undergoes abnormal splicing (exon skipping).
HeLa cells transfected with the prepared SPREADD reporter construct were brought into contact with the compounds listed in Table 2 below and cultured (concentrations: 22.86237 nM, 68.58711 nM, 205.7613 nM, 617.284 nM, 1851.852 nM, 5555.556 nM, 16666.67 nM, or 50000 nM). One day later, fluorescence was measured using All-in-One Fluorescence Microscope BZ-X700 (Keyence Corp.), and the IKBKAP-FD exon 20 inclusion rate was quantified by the GFP/RFP ratio of the IKBKAP-FD reporter. […] The EC50 was determined with %GFP of 20 pM 2-chloro-6-(2-furylmethyl)purine set to 100%. Regression analysis for determining EC50 was performed using GraphPad Prism 7.05.
For the molecule `COC(=O)COc1cc2c(NCc3ccco3)nc(Cl)nc2cc1OC` [Example 30, Methyl ({2-chloro-4-[(furan-2-ylmethyl)amino]-7-methoxyquinazolin-6-yl}oxy)acetate], the EC50 (commonly the concentration giving half of the maximal effect) is 26.4 µM.
As for `COc1cc2nc(Cl)nc(NCc3ccncc3)c2cc1OC` [Example 5, 2-Chloro-6,7-dimethoxy-N-(pyridin-4-ylmethyl)quinazolin-4-amine], the figure is 4.2 µM.
To `COc1cc2nc(Cl)nc(NCc3ccco3)c2cc1OCCCN1CCOCC1` [Example 21, 2-Chloro-N-(furan-2-ylmethyl)-7-methoxy-6-[3-(morpholin-4-yl)propoxy]quinazolin-4-amine] belongs 8.5 µM.
For the molecule `CNCCOc1cc2c(NCc3ccco3)nc(Cl)nc2cc1OC` [Example 24, 2-Chloro-N-(furan-2-ylmethyl)-7-methoxy-6-[2-(methylamino)ethoxy]quinazolin-4-amine], the EC50 was 0.48 µM.
As for `COc1ccc2c(NCc3ccco3)cc(Cl)nc2c1` [Example 12, 2-Chloro-N-(furan-2-ylmethyl)-7-methoxyquinolin-4-amine], the figure is 1.08 µM; as for `COc1cc2nc(Cl)nc(NCc3nccs3)c2cc1OC` [Example 4, 2-Chloro-6,7-dimethoxy-N-(1,3-thiazol-2-ylmethyl)quinazolin-4-amine], 35.9 µM.
As for `COc1ccc2nc(Cl)cc(NCc3ccco3)c2c1` [Example 13, 2-Chloro-N-(furan-2-ylmethyl)-6-methoxyquinolin-4-amine], the figure is 4.39 µM.
To `CNCCOc1cc2nc(Cl)nc(NCc3ccco3)c2cc1OC` [Example 32, 2-Chloro-N-(furan-2-ylmethyl)-6-methoxy-7-[2-(methylamino)ethoxy]quinazolin-4-amine] belongs 4.29 µM; to `COc1cc2nc(Cl)nc(NCc3ccco3)c2cc1OC` [Example 1, 2-Chloro-N-(furan-2-ylmethyl)-6,7-dimethoxyquinazolin-4-amine], 2.1 µM.
For the molecule `CCOc1cc2nc(Cl)nc(NCc3ccco3)c2cc1OC` [Example 33, 2-Chloro-7-ethoxy-N-(furan-2-ylmethyl)-6-methoxyquinazolin-4-amine], the EC50 amounted to 3.65 µM.
Consider `COc1cc2nc(Cl)nc(NCc3ccco3)c2cc1OCC1COCCO1` (stereo not drawn) [Example 27, 2-Chloro-6-(1,4-dioxan-2-ylmethoxy)-N-(furan-2-ylmethyl)-7-methoxyquinazolin-4-amine], for which the EC50 came to 2.02 µM.
As for `CCCOc1cc2c(NCc3ccco3)nc(Cl)nc2cc1OC` [Example 15, 2-Chloro-N-(furan-2-ylmethyl)-7-methoxy-6-propoxyquinazolin-4-amine], the figure is 0.6 µM.
As for `COc1cc2nc(Cl)nc(NCc3ccco3)c2cc1OCCN` [Example 23, 6-(2-Aminoethoxy)-2-chloro-N-(furan-2-ylmethyl)-7-methoxyquinazolin-4-amine], the figure is 0.53 µM; as for `COc1cc2nc(Cl)nc(NCc3ccoc3)c2cc1OC` [Example 8, 2-Chloro-N-(furan-3-ylmethyl)-6,7-dimethoxyquinazolin-4-amine], 20 µM.
As for `COc1cc2c(NCc3ccco3)nc(Cl)nc2cc1OCCN` [Example 31, 7-(2-Aminoethoxy)-2-chloro-N-(furan-2-ylmethyl)-6-methoxyquinazolin-4-amine], the figure is 3.15 µM; as for `COc1cc2nc(Cl)nc(NCc3ccco3)c2cc1OCCN1CCOCC1` [Example 20, 2-Chloro-N-(furan-2-ylmethyl)-7-methoxy-6-[2-(morpholin-4-yl)ethoxy] quinazolin-4-amine], 8.34 µM; as for `COc1cc2nc(Cl)nc(NCc3ccco3)c2cc1OCCO` [Example 26, 2-({2-Chloro-4-[(furan-2-ylmethyl)amino]-7-methoxyquinazolin-6-yl}oxy)ethanol], 0.82 µM.
For `COCCOc1cc2c(NCc3ccco3)nc(Cl)nc2cc1OC` [Example 17, 2-Chloro-N-(furan-2-ylmethyl)-7-methoxy-6-(2-methoxyethoxy)quinazolin-4-amine], the EC50 stood at 3.06 µM.
To `COc1cc2nc(Cl)nc(NCc3ccco3)c2cc1OC(C)C` [Example 16, 2-Chloro-N-(furan-2-ylmethyl)-7-methoxy-6-(propan-2-yloxy)quinazolin-4-amine] belongs 2.49 µM; to `COc1cc2nc(Cl)nc(NCc3cccs3)c2cc1OC` [Example 2, 2-Chloro-6,7-dimethoxy-N-(thiophen-2-ylmethyl)quinazolin-4-amine], 2.12 µM.
To `COC(=O)CCOc1cc2c(NCc3ccco3)nc(Cl)nc2cc1OC` [Example 29, Methyl 3-({2-chloro-4-[(furan-2-ylmethyl)amino]-7-methoxyquinazolin-6-yl}oxy)propanoate] belongs 6.41 µM; to `COc1cc2nc(Cl)nc(NCc3ccco3)c2cc1OCC1COC1` [Example 19, 2-Chloro-N-(furan-2-ylmethyl)-7-methoxy-6-(oxetan-3-ylmethoxy)quinazolin-4-amine], 0.17 µM.
As for `COc1cc2nc(Cl)nc(NCc3ccco3)c2cc1OCCN(C)C` [Example 25, 2-Chloro-6-[2-(dimethylamino)ethoxy]-N-(furan-2-ylmethyl)-7-methoxyquinazolin-4-amine], the figure is 0.79 µM.
With `COc1cc2nc(Cl)nc(NCc3ncco3)c2cc1OC` [Example 6, 2-Chloro-6,7-dimethoxy-N-(1,3-oxazol-2-ylmethyl)quinazolin-4-amine], the EC50 worked out at 5.7 µM.
To `COc1cc2nc(Cl)nc(NCc3cc[nH]c3)c2cc1OC` [Example 7, 2-Chloro-6,7-dimethoxy-N-(1H-pyrrol-3-ylmethyl) quinazolin-4-amine] belongs 21.9 µM.
As for `COc1cc2nc(Cl)nc(NCc3ccco3)c2cc1OCCC(=O)O` [Example 28, 3-({2-Chloro-4-[(furan-2-ylmethyl)amino]-7-methoxyquinazolin-6-yl}oxy)propanoic acid], the figure is above 50 µM.
Turning to `COc1cc2nc(Cl)nc(NCc3ccsc3)c2cc1OC` [Example 3, 2-Chloro-6,7-dimethoxy-N-(thiophen-3-ylmethyl)quinazolin-4-amine], the EC50 came to 2.82 µM.
To `COc1ccc2c(NCc3ccco3)nc(Cl)nc2c1` [Example 10, 2-Chloro-N-(furan-2-ylmethyl)-7-methoxyquinazolin-4-amine] belongs 2.9 µM.
For the molecule `COc1cc2nc(Cl)nc(NCc3ccco3)c2cc1OCC1CC1` [Example 18, 2-Chloro-6-(cyclopropylmethoxy)-N-(furan-2-ylmethyl)-7-methoxyquinazolin-4-amine], the EC50 amounted to 1.6 µM.
To `COc1cc2nc(Cl)nc(NCc3ccccn3)c2cc1OC` [Example 9, 2-Chloro-6,7-dimethoxy-N-(pyridin-2-ylmethyl)quinazolin-4-amine] belongs 3.34 µM.
To `COc1ccc2nc(Cl)nc(NCc3ccco3)c2c1` [Example 11, 2-Chloro-N-(furan-2-ylmethyl)-6-methoxyquinazolin-4-amine] belongs 8 µM.
Consider `CCOc1cc2c(NCc3ccco3)nc(Cl)nc2cc1OC` [Example 14, 2-Chloro-6-ethoxy-N-(furan-2-ylmethyl)-7-methoxyquinazolin-4-amine], for which the EC50 came out at 1.37 µM.
As for `COc1cc2nc(Cl)nc(NCc3ccco3)c2cc1OCCC1CS(=O)(=O)C1` [Example 22, 2-Chloro-6-[2-(1,1-dioxidothiethan-3-yl)ethoxy]-N-(furan-2-ylmethyl)-7-methoxyquinazolin-4-amine], the figure is 14.5 µM.
